In the supplement of paper PMC5908809:

Experiments:
[1] = system: normal NK cells expanded with K562-aAPC; test: percent inhibition of viability; higher = more inhibition; conditions: 72 h, IL-2 2.5 ng/mL
Experimental: (§1)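 Drug sensitivity and resistance testing on K562-aAPC-expanded normal NK cells: 5 concentrations (10-fold steps over a 10,000-fold range), 72 h at 37 °C, viability by CellTiter-Glo normalised to DMSO and benzethonium chloride controls; DSS from the fitted curve.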

DERL-7 (IL-2 2.5 ng/mL) [2] = test: as above; conditions: 72 h
IMC-1 (IL-2 20 ng/mL) [3] = test: as above; conditions: 72 h
KAI3 (IL-2 2.5 ng/mL) [4] = test: as above; conditions: 72 h
KHYG-1 (IL-2 2.5 ng/mL) [5] = test: as above; conditions: 72 h
NK-92 (IL-2 2.5 ng/mL) [6] = test: as above; conditions: 72 h
NK-YS (IL-2 2.5 ng/mL) [7] = test: as above; conditions: 72 h
NKL (IL-2 2.5 ng/mL) [8] = test: as above; conditions: 72 h
SNK-6 (IL-2 2.5 ng/mL) [9] = test: as above; conditions: 72 h
YT (IL-2 2.5 ng/mL) [10] = test: as above; conditions: 72 h
[11] = system: normal primary NK cells, pool 1 (3 donors) (IL-2 2.5 ng/mL); test: as above; conditions: 72 h
[12] = system: normal primary NK cells, pool 1 (3 donors), resting (IL-2 0 ng/mL); test: as above; conditions: 72 h
[13] = system: normal primary NK cells, pool 2 (3 donors) (IL-2 2.5 ng/mL); test: as above; conditions: 72 h
[14] = system: normal primary NK cells, pool 3 (3 donors) (IL-2 2.5 ng/mL); test: as above; conditions: 72 h
[15] = system: normal NK cells expanded with K562-aAPC; test: drug sensitivity score (DSS) (DSS units); higher = more sensitive; extreme values may be limits of the assay; conditions: 72 h; IL-2 2.5 ng/mL
Experimental: as §1

DERL-7 (IL-2 2.5 ng/mL) [16] = test: as above; conditions: 72 h
IMC-1 (IL-2 20 ng/mL) [17] = test: as above; conditions: 72 h
KAI3 (IL-2 2.5 ng/mL) [18] = test: as above; conditions: 72 h
KHYG-1 (IL-2 2.5 ng/mL) [19] = test: as above; conditions: 72 h
NK-92 (IL-2 2.5 ng/mL) [20] = test: as above; conditions: 72 h
NK-YS (IL-2 2.5 ng/mL) [21] = test: as above; conditions: 72 h
NKL (IL-2 2.5 ng/mL) [22] = test: as above; conditions: 72 h
SNK-6 (IL-2 2.5 ng/mL) [23] = test: as above; conditions: 72 h
YT (IL-2 2.5 ng/mL) [24] = test: as above; conditions: 72 h
[25] = system: normal primary NK cells, pool 1 (3 donors) (IL-2 2.5 ng/mL); test: as above; conditions: 72 h
[26] = system: normal primary NK cells, pool 1 (3 donors), resting (IL-2 0 ng/mL); test: as above; conditions: 72 h
[27] = system: normal primary NK cells, pool 2 (3 donors) (IL-2 2.5 ng/mL); test: as above; conditions: 72 h
[28] = system: normal primary NK cells, pool 3 (3 donors) (IL-2 2.5 ng/mL); test: as above; conditions: 72 h

Cn1cncc1[C@@](N)(c1ccc(Cl)cc1)c1ccc2c(c1)c(-c1cccc(Cl)c1)cc(=O)n2C [Tipifarnib] (max concentration tested 10000 nM)
percent inhibition of viability [%]
Conditions	1 nM	10 nM	100 nM	1000 nM	10000 nM
DERL-7 (IL-2 2.5 ng/mL) [2]	1.19	15	50.5	55.8	82.4
IMC-1 (IL-2 20 ng/mL) [3]	-0.42	7.67	12.7	14.3	84.9
KAI3 (IL-2 2.5 ng/mL) [4]	6.75	19.1	47.3	58.3	85.1
KHYG-1 (IL-2 2.5 ng/mL) [5]	-2.81	24	75.8	83	107
NK-92 (IL-2 2.5 ng/mL) [6]	-0.73	9.6	37.6	61.4	109
NK-YS (IL-2 2.5 ng/mL) [7]	-3.65	20.6	59.3	66.9	90
NKL (IL-2 2.5 ng/mL) [8]	-4.94	-3.92	26.4	59.5	92.4
SNK-6 (IL-2 2.5 ng/mL) [9]	-6.05	-1.97	53.1	67.8	79
YT (IL-2 2.5 ng/mL) [10]	3.74	11.7	34.3	55.4	106
[1]	-0.6	11.6	28.5	39.2	75.8
[11]	5.62	11.4	32.4	24	96.1
[12]	-0.67	17.8	34.2	56.4	93
[13]	-6.39	6.93	13.5	23.8	83.5
[14]	-5.22	13.6	17.7	17.1	53.4

Conditions	drug sensitivity score
DERL-7 (IL-2 2.5 ng/mL) [16]	18.6
IMC-1 (IL-2 20 ng/mL) [17]	7.09
KAI3 (IL-2 2.5 ng/mL) [18]	19.1
KHYG-1 (IL-2 2.5 ng/mL) [19]	28.6
NK-92 (IL-2 2.5 ng/mL) [20]	17.5
NK-YS (IL-2 2.5 ng/mL) [21]	22.5
NKL (IL-2 2.5 ng/mL) [22]	14.4
SNK-6 (IL-2 2.5 ng/mL) [23]	20.7
YT (IL-2 2.5 ng/mL) [24]	16.2
[15]	11.9
[25]	10.5
[26]	16.3
[27]	7.58
[28]	6.12

Nc1cc(F)ccc1NC(=O)/C=C/c1cnn(C/C=C/c2ccccc2)c1 [RGFP966] (max concentration tested 10000 nM)
percent inhibition of viability [%]
Conditions	1 nM	10 nM	100 nM	1000 nM	10000 nM
DERL-7 (IL-2 2.5 ng/mL) [2]	-5.83	-2.09	9.7	22.7	77.1
IMC-1 (IL-2 20 ng/mL) [3]	-2.38	0.66	0.87	7.16	19.2
KAI3 (IL-2 2.5 ng/mL) [4]	3.23	7.54	1.59	11.1	70.5
KHYG-1 (IL-2 2.5 ng/mL) [5]	-1.2	0.69	1.5	8.74	43.4
NK-92 (IL-2 2.5 ng/mL) [6]	3.38	1.97	18.1	20.7	79.9
NK-YS (IL-2 2.5 ng/mL) [7]	-1.47	0.43	1.84	5.06	33.6
NKL (IL-2 2.5 ng/mL) [8]	-2.36	10.4	5.66	29.4	82.3
SNK-6 (IL-2 2.5 ng/mL) [9]	6.08	7.31	9.67	21	62.2
YT (IL-2 2.5 ng/mL) [10]	-2.17	-1.29	1.57	1.53	26.1
[1]	4.29	0.23	1.76	9.82	9.19
[11]	-6.12	-12	2.42	-14.4	-7.06
[12]	0.87	-9.67	-2.19	-2.37	16.1
[13]	-11.2	-8.68	8.11	0.44	9.58
[14]	-1.19	-0.09	10.8	-6.25	4.39

Conditions	drug sensitivity score
DERL-7 (IL-2 2.5 ng/mL) [16]	7.16
IMC-1 (IL-2 20 ng/mL) [17]	1.17
KAI3 (IL-2 2.5 ng/mL) [18]	5.75
KHYG-1 (IL-2 2.5 ng/mL) [19]	3.64
NK-92 (IL-2 2.5 ng/mL) [20]	6.98
NK-YS (IL-2 2.5 ng/mL) [21]	2.39
NKL (IL-2 2.5 ng/mL) [22]	8.18
SNK-6 (IL-2 2.5 ng/mL) [23]	5.69
YT (IL-2 2.5 ng/mL) [24]	1.24
[15]	0
[25]	0
[26]	0.22
[27]	0
[28]	0

CC(O)(CS(=O)(=O)c1ccc(F)cc1)C(=O)Nc1ccc(C#N)c(C(F)(F)F)c1 (configuration not stated) [Bicalutamide] (max concentration tested 10000 nM)
percent inhibition of viability [%]
Conditions	1 nM	10 nM	100 nM	1000 nM	10000 nM
DERL-7 (IL-2 2.5 ng/mL) [2]	1.65	7.46	-4.98	5.71	5.22
IMC-1 (IL-2 20 ng/mL) [3]	3.29	5.96	8.36	9.75	42.3
KAI3 (IL-2 2.5 ng/mL) [4]	14.6	10.8	21.5	20.8	43.6
KHYG-1 (IL-2 2.5 ng/mL) [5]	3.99	22.1	3.98	27.4	19.9
NK-92 (IL-2 2.5 ng/mL) [6]	10.3	8.57	4.92	20.1	30.6
NK-YS (IL-2 2.5 ng/mL) [7]	9.7	4	13.7	9.96	23.5
NKL (IL-2 2.5 ng/mL) [8]	0.19	16.2	5.15	40.3	35.9
SNK-6 (IL-2 2.5 ng/mL) [9]	9.4	13.4	4.02	9.59	26.6
YT (IL-2 2.5 ng/mL) [10]	3.05	13.5	3.8	17.9	16.7
[1]	5.68	3.24	1.15	11.5	13.4
[11]	-3.4	-8.36	-1.19	-15.8	6.46
[12]	2.97	-8.07	-9.37	-26.1	-10.4
[13]	-0.02	-1.32	-0.86	-0.13	7.12
[14]	3.23	-2.54	5.11	-2.8	-0.48

Conditions	drug sensitivity score
DERL-7 (IL-2 2.5 ng/mL) [16]	0
IMC-1 (IL-2 20 ng/mL) [17]	3.5
KAI3 (IL-2 2.5 ng/mL) [18]	7.75
KHYG-1 (IL-2 2.5 ng/mL) [19]	4.48
NK-92 (IL-2 2.5 ng/mL) [20]	3.61
NK-YS (IL-2 2.5 ng/mL) [21]	2.2
NKL (IL-2 2.5 ng/mL) [22]	8.09
SNK-6 (IL-2 2.5 ng/mL) [23]	2.16
YT (IL-2 2.5 ng/mL) [24]	1.84
[15]	0.74
[25]	0
[26]	0
[27]	0
[28]	0
